In patent publication US20230322722A1, “MODULATORS OF MYC FAMILY PROTO-ONCOGENE PROTEIN” (Nalo Therapeutics, priority 2020, published 2023) one finds inhibition data, which are given here for 16 compounds.

In one assay the target is T1, MycN protein (Homo sapiens, UniProt P04198).
T1 construct: either 2×10^6 of L-363 (human leukemia cell line) or SKNBE2 (neuroblastoma cell line) cells; endogenous in cells; host or cells: SKNBE2 / SK-N-BE(2) neuroblastoma cells
T1 sequence (P04198 1-464): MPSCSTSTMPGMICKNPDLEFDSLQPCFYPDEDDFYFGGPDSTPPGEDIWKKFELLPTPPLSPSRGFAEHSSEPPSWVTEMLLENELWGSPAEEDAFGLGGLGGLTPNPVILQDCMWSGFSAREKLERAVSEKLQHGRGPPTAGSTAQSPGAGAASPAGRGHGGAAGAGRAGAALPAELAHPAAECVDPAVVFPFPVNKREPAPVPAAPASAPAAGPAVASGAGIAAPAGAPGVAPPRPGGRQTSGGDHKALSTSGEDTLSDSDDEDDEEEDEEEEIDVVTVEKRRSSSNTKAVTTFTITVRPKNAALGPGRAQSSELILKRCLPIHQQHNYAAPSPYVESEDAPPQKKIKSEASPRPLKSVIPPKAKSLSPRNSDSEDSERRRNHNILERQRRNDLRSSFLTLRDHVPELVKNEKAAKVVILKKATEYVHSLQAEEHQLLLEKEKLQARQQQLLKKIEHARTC
Nature of the assay: Degradation of MycN protein, Western blot, SKNBE2 cells (Example 160). Format: cell-based. The procedure:
(§1) In a T150 flask was plated either 2×10^6 of L-363 (human leukemia cell line) or SKNBE2 (neuroblastoma cell line) cells in a total of 30 mL containing Roswell Park Memorial Institute (RPMI) 1640 Medium (Thermo Fisher, Cat. #11875-085), 10% Fetal Bovine Serum (FBS, Thermo Fisher: Cat. #10437-028), 1% Penicillin/streptomycin (Thermo Fisher: Cat. #10378016), and 1% Amophotericin B (Thermo Fisher, Cat. #15290026). The cells were split every 72 hours by reseeding the L-363 or SKNBE2 cells, and the passage number was noted. It is noteworthy that cell cultures that were above 40 passages were not used, and most experiments were done with cells of less than 30 passages.
(§2) In a 6-well cell culture plate, a total of 3 mL of either 1×10^6 cells/mL of L-363 or SKNBE2 cells were seeded, resulting in a total of 3×10^6 cells per well. To each well containing 3 mL of either L-363 or SKNBE2 cell line was added 6 uL of MycN modulating compound (1 mM) and the resulting plate was shaken from left to right, and not swirled. After 6 hours, the cells were placed in a 15 mL falcon tube and spun at 500 Gs at 4° C. in a swinging bucket centrifuge. The medium was then carefully removed without disturbing the pellet. The pellet was then washed with 3 mLs of chilled phosphate buffered saline (PBS) and subjected to the spin cycle. PBS was then removed and the pellet was lysed in 200 uL of radioimmunoprecipitation (RIPA) lysis buffer (Thermo Fisher: Cat. #899000) that is supplemented with protease and phosphatase inhibitors (Thermo Fisher: Cat. #A32959). The cell lysate was then subjected to spinning in a centrifuge for 10 minutes at 13000 G at 4° C. The supernatant was then carefully transferred to a fresh eppendorf tube without disturbing the pellet (˜180 uL). The protein concentration of the cell lysate was then determined by using a bicinchoninic acid (BCA assay) according to manufacturer's protocol (Thermo Fisher: Cat. #23227).
(§3) Cell lysate, approximately 25 ug-30 ug, was loaded per well in a 4-20% polyacrylamide gel (Biorad. Cat. #5671094). After running the dye front off of the gel, the gel was transferred to a nitrocellulose membrane (Biorad: Cat. #1704159) using the transblot turbo system (Biorad: Cat. #1704150) according to manufacturer's protocol. After transferring for 30 minutes, the membrane was blocked with 5% BSA for 1 hour at room temperature. The BSA was then washed off and the primary antibody of choice (1:500) was added, and the membrane was incubated with the primary antibody at 4° C. for overnight. The next morning, the primary antibody was removed and the membrane was washed with 1×-TBST for 10 minutes and repeated three more times. Following the last wash, a secondary antibody (Molecular Devices. Cat. #R8209 or R8208) was added at 1:5000 dilution and incubated for 1 hour at room temperature. Following the incubation with the secondary antibody, the membrane was washed with 1×-TBST for 10 minutes and repeated three more times. Following the last wash, the membrane was washed with de-ionized water twice and dried for at least two hours. Once the membrane is completely dry, the Molecular Devices Spectra Max western system was used to observe the bands. The western image was saved and the band density was measured with ImageJ software.
(In general: A western blot detects proteins with antibodies after separation by electrophoresis.)

The target of the next assay is T2, MycC protein (Homo sapiens, UniProt P01106).
T2 construct: either 2×10^6 of L-363 (human leukemia cell line) or SKNBE2 (neuroblastoma cell line) cells; endogenous in cells; host or cells: L-363 / L363 human leukemia cells
T2 sequence (P01106 whole entry): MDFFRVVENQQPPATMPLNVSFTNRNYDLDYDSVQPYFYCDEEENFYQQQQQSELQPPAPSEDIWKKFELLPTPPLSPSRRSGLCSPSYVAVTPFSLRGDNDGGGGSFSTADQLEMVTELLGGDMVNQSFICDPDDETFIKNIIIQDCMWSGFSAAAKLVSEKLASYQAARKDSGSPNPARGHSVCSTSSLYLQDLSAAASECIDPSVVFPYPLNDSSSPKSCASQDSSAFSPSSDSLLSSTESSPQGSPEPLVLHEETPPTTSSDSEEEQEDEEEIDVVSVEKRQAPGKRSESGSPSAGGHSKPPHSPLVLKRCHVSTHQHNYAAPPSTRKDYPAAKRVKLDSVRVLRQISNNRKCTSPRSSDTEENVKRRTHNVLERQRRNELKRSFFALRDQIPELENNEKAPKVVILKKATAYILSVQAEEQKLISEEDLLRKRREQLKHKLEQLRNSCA
Kind of assay: Degradation of MycC protein, Western blot, L-363 cells (Example 160). As to conditions: 6 h. Format: cell-based. The procedure: as §1, §2, §3

A word on the inhibition: it is the change of the read-out against control, counted positive when it falls. Read a high inhibition as a strong effect.

A value given as a limit tells only on which side of the number the result lay.

Consider `CN(c1nccc(Nc2cc(C3CC3)[nH]n2)n1)[C@H]1CC[C@H](NC(=O)Cc2cccc(S(C)(=O)=O)c2)CC1` [Compound 115, N-((1R,4R)-4-((4-((5-cyclopropyl-1H-pyrazol-3-yl)amino)pyrimidin-2-yl)(methyl)amino)cyclohexyl)-2-(3-(methylsulfonyl)phenyl)acetamide], for which the inhibition at 2 µM on MycN protein (SKNBE2, 6 h) is below 20%; at MycC protein it was 50 to 79%.

Regarding `CN(c1nccc(Nc2cc(C3CC3)[nH]n2)n1)[C@H]1CC[C@H](NC(=O)C2(C)CCOCC2)CC1` [Compound 116, N-((1R,4R)-4-((4-((5-cyclopropyl-1H-pyrazol-3-yl)amino)pyrimidin-2-yl)(methyl)amino)cyclohexyl)-4-methyltetrahydro-2H-pyran-4-carboxamide], the inhibition at 2 µM against MycN protein (SKNBE2, 6 h) was below 20%; against MycC protein it was 80 to 100%.

Turning to `CN(c1nccc(Nc2cc(C3CC3)[nH]n2)n1)[C@H]1CC[C@H](NC(=O)c2cn3ccccc3n2)CC1` [Compound 117, N-((1R,4R)-4-((4-((5-cyclopropyl-1H-pyrazol-3-yl)amino)pyrimidin-2-yl)(methyl)amino)cyclohexyl)imidazo[1,2-a]pyridine-2-carboxamide], the inhibition at 2 µM against MycN protein (SKNBE2, 6 h) lay in the range of 80 to 100%; against MycC protein it was 80 to 100%.

Take `Cn1ncc2cc(C(=O)N[C@H]3CC[C@H](N(C)c4nccc(Nc5cc(C6CC6)[nH]n5)n4)CC3)ccc21` [Compound 118, N-((1R,4R)-4-((4-((5-cyclopropyl-1H-pyrazol-3-yl)amino)pyrimidin-2-yl)(methyl)amino)cyclohexyl)-1-methyl-1H-indazole-5-carboxamide]: the inhibition at 2 µM on MycN protein (SKNBE2, 6 h) lay within 50 to 79%; against MycC protein it was 80 to 100%.

With `CN(c1nccc(Nc2cc(C3CC3)[nH]n2)n1)[C@H]1CC[C@H](C(=O)NC2Cc3ccccc3C2)CC1` [Compound 119, (1R,4R)-4-((4-((5-cyclopropyl-1H-pyrazol-3-yl)amino)pyrimidin-2-yl)(methyl)amino)-N-(2,3-dihydro-1H-inden-2-yl)cyclohexane-1-carboxamide], the inhibition at 2 µM against MycN protein (6 h) and against MycC protein was 80 to 100% in each case.

For `CN(c1nccc(Nc2cc(C3CC3)[nH]n2)n1)[C@H]1CC[C@H](C(=O)NCC2Cc3ccccc3C2)CC1` [Compound 120, (1R,4R)-4-((4-((5-cyclopropyl-1H-pyrazol-3-yl)amino)pyrimidin-2-yl)(methyl)amino)-N-((2,3-dihydro-1H-inden-2-yl)methyl)cyclohexane-1-carboxamide], the inhibition at 2 µM on MycN protein (SKNBE2, 6 h) fell in the range of 50 to 79%; against MycC protein, 80 to 100%.

On to `CN(c1nccc(Nc2cc(C3CC3)[nH]n2)n1)C1CCC(CC(=O)NC2Cc3ccccc3C2)CC1` (centres unmarked) [Compound 121, 2-(4-((4-((5-cyclopropyl-1H-pyrazol-3-yl)amino)pyrimidin-2-yl)(methyl)amino)cyclohexyl)-N-(2,3-dihydro-1H-inden-2-yl)acetamide], for which the inhibition at 2 µM against MycN protein (6 h) and against MycC protein was 80 to 100% in each case.

`Cn1nnc(C(=O)N[C@H]2CC[C@H](N(C)c3nccc(Nc4cc(C5CC5)[nH]n4)n3)CC2)n1` [Compound 122, N-((1R,4R)-4-((4-((5-cyclopropyl-1H-pyrazol-3-yl)amino)pyrimidin-2-yl)(methyl)amino)cyclohexyl)-2-methyl-2H-tetrazole-5-carboxamide]: the inhibition at 2 µM against MycN protein (SKNBE2, 6 h) is 50 to 79%; against MycC protein, 80 to 100%.

For `CN(c1nccc(Nc2cc(C3CC3)[nH]n2)n1)[C@H]1CC[C@H](NC(=O)Cc2ccnc(C(F)(F)F)c2)CC1` [Compound 123, N-((1R,4R)-4-((4-((5-cyclopropyl-1H-pyrazol-3-yl)amino)pyrimidin-2-yl)(methyl)amino)cyclohexyl)-2-(2-(trifluoromethyl)pyridin-4-yl)acetamide], the inhibition at 2 µM against MycN protein (SKNBE2, 6 h) is 20 to 49%; against MycC protein it was 20 to 49%.

On to `CN(c1nccc(Nc2cc(C3CC3)[nH]n2)n1)[C@H]1CC[C@H](NC(=O)Cc2ccnc(C#N)c2)CC1` [Compound 124, 2-(2-cyanopyridin-4-yl)-N-((1R,4R)-4-((4-((5-cyclopropyl-1H-pyrazol-3-yl)amino)pyrimidin-2-yl)(methyl)amino)cyclohexyl)acetamide], for which the inhibition at 2 µM at MycN protein (SKNBE2, 6 h) was 50 to 79%; at MycC protein it was 80 to 100%.

On to `CN(c1nccc(Nc2cc(C3CC3)[nH]n2)n1)[C@H]1CC[C@H](NC(=O)Cc2cccc(C#N)n2)CC1` [Compound 125, 2-(6-cyanopyridin-2-yl)-N-((1R,4R)-4-((4-((5-cyclopropyl-1H-pyrazol-3-yl)amino)pyrimidin-2-yl)(methyl)amino)cyclohexyl)acetamide], for which the inhibition at 2 µM fell in the range of 80 to 100% on MycN protein (SKNBE2, 6 h) and 80 to 100% on MycC protein.

In the case of `COc1ccc(C#N)cc1CC(=O)N[C@H]1CC[C@H](N(C)c2nccc(Nc3cc(C4CC4)[nH]n3)n2)CC1` [Compound 126, 2-(5-cyano-2-methoxyphenyl)-N-((1R,4R)-4-((4-((5-cyclopropyl-1H-pyrazol-3-yl)amino)pyrimidin-2-yl)(methyl)amino)cyclohexyl)acetamide], the inhibition at 2 µM is below 20% against MycN protein (SKNBE2, 6 h) and 80 to 100% against MycC protein.

As to `CN(c1nccc(Nc2cc(C3CC3)[nH]n2)n1)[C@H]1CC[C@H](C(=O)NCc2cccc(C(F)(F)F)c2)CC1` [Compound 127, (1R,4R)-4-((4-((5-cyclopropyl-1H-pyrazol-3-yl)amino)pyrimidin-2-yl)(methyl)amino)-N-(3-(trifluoromethyl)benzyl)cyclohexane-1-carboxamide], the inhibition at 2 µM against MycN protein (SKNBE2, 6 h) lay in the range of 80 to 100%; against MycC protein it was 80 to 100%.

As for `CN(c1nccc(Nc2cn(C3CCCC3)cn2)n1)[C@H]1CC[C@H](NC(=O)C2Cc3ccccc3C2)CC1` [Compound 130, N-((1R,4R)-4-((4-((1-cyclopentyl-1H-imidazol-4-yl)amino)pyrimidin-2-yl)(methyl)amino)cyclohexyl)-2,3-dihydro-1H-indene-2-carboxamide], the inhibition at 2 µM against MycN protein (SKNBE2, 6 h) is below 20%; against MycC protein it was 50 to 79%.

As for `CN(c1nccc(Oc2cc(C3CCCC3)[nH]n2)n1)C1CCC(NC(=O)Cc2cccc(C(F)(F)F)c2)CC1` [Compound 131, N-((1R,4R)-4-((4-((5-cyclopentyl-1H-pyrazol-3-yl)oxy)pyrimidin-2-yl)(methyl)amino)cyclohexyl)-2-(3-(trifluoromethyl)phenyl)acetamide], the inhibition at 2 µM at MycN protein (SKNBE2, 6 h) was 20 to 49%; against MycC protein, below 20%.

`CN(c1nccc(Nc2cc(C3CC3)[nH]n2)n1)[C@H]1CC[C@H](NC(=O)c2cccc(S(C)(=O)=O)c2)CC1` [Compound 132, N-((1R,4R)-4-((4-((5-cyclopropyl-1H-pyrazol-3-yl)amino)pyrimidin-2-yl)(methyl)amino)cyclohexyl)-3-(methylsulfonyl)benzamide]: the inhibition at 2 µM lay in the range of 80 to 100% against MycN protein (SKNBE2, 6 h) and 80 to 100% at MycC protein.
